The source of these data is PMC3177607 (Bioorganic & medicinal chemistry letters, 2008).

Read-outs that look alike come from different tables or passages of the source. Some results are limits rather than exact numbers.

The target of assay [1] is T1, D2 (Homo sapiens, UniProt P14416). The assay can be described thus: D2 inhibition. The class given is cell-based.
Assay [2] deals with T2, M1 (Rattus norvegicus, UniProt P08482).
T2 sequence (P08482 1-460): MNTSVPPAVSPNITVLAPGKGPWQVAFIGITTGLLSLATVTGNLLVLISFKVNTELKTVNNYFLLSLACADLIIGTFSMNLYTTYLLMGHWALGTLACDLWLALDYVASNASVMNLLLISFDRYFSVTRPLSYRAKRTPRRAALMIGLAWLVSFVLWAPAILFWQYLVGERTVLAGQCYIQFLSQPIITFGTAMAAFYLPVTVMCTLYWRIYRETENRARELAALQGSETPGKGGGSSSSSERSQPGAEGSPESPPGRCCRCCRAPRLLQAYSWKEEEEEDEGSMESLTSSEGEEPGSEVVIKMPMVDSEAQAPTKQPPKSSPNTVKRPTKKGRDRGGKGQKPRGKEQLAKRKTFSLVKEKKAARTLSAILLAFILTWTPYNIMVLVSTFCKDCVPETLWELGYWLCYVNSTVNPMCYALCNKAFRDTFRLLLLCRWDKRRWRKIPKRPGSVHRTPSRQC
The assay is described as follows: 10 μM single point M1 activation screen. The class given is cell-based. Particulars: in triplicate, relative to ACh, CCh and TBPB controls.

The target of assay [3] is T3, M2 (Homo sapiens, UniProt P08172).
T3 sequence (P08172 1-466): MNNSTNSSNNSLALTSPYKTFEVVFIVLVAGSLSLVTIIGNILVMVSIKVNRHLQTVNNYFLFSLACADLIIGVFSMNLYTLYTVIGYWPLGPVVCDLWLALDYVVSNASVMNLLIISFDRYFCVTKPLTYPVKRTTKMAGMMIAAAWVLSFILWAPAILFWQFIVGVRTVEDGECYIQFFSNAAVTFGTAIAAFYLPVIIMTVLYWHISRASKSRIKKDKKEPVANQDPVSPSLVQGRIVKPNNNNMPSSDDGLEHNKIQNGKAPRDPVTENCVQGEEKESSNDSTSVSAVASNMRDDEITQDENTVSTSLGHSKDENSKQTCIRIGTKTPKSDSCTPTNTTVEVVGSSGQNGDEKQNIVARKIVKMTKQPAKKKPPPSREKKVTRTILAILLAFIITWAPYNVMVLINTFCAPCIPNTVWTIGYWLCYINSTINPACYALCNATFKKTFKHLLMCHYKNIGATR
The assay can be described thus: M2 functional activation. The class given is cell-based.

Assay [4] deals with T4, M5 (Homo sapiens, UniProt P08912).
T4 sequence (P08912 1-532): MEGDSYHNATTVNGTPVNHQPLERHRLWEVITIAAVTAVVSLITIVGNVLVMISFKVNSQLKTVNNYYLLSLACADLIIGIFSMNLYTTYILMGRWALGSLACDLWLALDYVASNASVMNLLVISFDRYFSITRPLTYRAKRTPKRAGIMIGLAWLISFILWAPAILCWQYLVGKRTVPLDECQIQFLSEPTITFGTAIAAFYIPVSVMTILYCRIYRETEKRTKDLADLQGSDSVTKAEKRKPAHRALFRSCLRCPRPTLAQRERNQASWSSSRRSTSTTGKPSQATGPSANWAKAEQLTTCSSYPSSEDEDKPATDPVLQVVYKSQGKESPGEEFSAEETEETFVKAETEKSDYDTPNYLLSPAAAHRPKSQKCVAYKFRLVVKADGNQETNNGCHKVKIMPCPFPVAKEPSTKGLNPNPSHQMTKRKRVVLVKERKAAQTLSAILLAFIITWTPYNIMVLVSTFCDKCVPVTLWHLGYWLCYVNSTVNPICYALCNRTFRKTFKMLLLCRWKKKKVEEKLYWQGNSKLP
The assay can be described thus: M5 functional activation. The class given is cell-based.

In assay [5] the target is T5, M4 (Homo sapiens, UniProt P08173).
T5 sequence (P08173 1-479): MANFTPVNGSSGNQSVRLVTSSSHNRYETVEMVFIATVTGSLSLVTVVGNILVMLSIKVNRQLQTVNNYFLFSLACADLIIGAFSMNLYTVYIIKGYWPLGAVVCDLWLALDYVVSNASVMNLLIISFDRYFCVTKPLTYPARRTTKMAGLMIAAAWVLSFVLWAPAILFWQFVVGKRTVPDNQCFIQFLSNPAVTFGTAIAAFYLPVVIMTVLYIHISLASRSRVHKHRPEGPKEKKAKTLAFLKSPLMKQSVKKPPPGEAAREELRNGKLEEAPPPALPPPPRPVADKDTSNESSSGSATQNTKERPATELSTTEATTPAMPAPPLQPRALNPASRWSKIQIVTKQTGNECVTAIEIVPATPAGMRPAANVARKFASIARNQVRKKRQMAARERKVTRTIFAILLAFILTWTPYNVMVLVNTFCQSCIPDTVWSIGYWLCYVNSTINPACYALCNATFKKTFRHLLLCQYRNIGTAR
The assay is described as follows: M4 functional activation. The class given is cell-based.

Assay [6] addresses M3 (Homo sapiens, UniProt P20309). The assay is described as follows: M3 functional activation. The class given is cell-based.
For assay [7], the target named is T1, D2. To be noted: cited from earlier work.

T1 sequence (P14416 whole entry): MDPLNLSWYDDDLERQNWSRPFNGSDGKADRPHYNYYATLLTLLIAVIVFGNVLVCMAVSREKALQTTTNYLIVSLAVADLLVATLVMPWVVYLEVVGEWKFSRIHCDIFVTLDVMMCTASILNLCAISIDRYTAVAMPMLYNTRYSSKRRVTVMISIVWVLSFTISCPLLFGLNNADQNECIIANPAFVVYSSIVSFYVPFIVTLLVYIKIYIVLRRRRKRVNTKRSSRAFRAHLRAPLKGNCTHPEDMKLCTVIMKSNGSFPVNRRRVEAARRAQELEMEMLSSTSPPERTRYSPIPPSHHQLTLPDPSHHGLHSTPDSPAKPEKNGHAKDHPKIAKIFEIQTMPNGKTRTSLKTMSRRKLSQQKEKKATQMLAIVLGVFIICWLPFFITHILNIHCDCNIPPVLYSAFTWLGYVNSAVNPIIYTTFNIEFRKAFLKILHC
M3, sequence (P20309 whole entry): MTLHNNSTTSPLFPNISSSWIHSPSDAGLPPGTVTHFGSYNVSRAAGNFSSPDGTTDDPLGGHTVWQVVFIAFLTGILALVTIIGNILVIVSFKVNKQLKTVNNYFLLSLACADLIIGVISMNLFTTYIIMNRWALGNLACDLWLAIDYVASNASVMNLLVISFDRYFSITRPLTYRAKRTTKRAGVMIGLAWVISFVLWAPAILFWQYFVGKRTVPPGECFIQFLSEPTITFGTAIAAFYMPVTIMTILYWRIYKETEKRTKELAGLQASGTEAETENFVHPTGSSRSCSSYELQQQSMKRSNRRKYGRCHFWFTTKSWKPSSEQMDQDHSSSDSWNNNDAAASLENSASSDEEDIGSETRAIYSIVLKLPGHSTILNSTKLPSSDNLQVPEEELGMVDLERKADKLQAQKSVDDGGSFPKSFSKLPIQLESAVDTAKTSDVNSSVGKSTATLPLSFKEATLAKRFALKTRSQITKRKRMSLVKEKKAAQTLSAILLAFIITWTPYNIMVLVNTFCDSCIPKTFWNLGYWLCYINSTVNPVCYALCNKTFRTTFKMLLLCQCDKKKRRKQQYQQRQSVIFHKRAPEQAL

Consider `O=c1[nH]c2ccccc2n1C1CCN(C2CCN(S(=O)(=O)c3ccccc3)CC2)CC1` [9c], for which the inhibition at 10 µM in assay [1] (read-out: inhibition of D2) was around 10%. Further, the “M1 activation, single point screen” value in assay [2] is “activated M1”. For the same molecule, the EC50 in assay [3], in assay [4], in assay [5] and in assay [6] was above 30000 nM throughout.

Take `O=C(Nc1cccc(SC(F)(F)F)c1)N1CCC(N2CCC(n3c(=O)[nH]c4ccccc43)CC2)CC1` [10i]: the “M1 activation, single point screen” value in assay [2] is “activated M1”.

Turning to `O=c1[nH]c2ccc(F)cc2n1C1CCN(C2CCN(S(=O)(=O)c3ccccc3)CC2)CC1` [14c], the “inhibition of D2” value in assay [1] (at concentrations up to 10 μM) was “did not inhibit”.

In the case of `O=c1[nH]c2ccccc2n1C1CCN(C2CCN(Cc3ccccc3C(F)(F)F)CC2)CC1` [compound 2], the D2 inhibitory activity result in assay [7] is on record as “no D2 inhibitory activity”.

Turning to `CCOC(=O)N1CCC(N2CCC(n3c(=O)[nH]c4ccccc43)CC2)CC1` [ethyl carbamate congener], in assay [3], the “% CCh Max at M2” value turned out to be 80.6%. For the same molecule, the figures for the 50% effective concentration (EC50) in assay [3] (read-out: M2 EC50), in assay [4] (read-out: M5 EC50) and in assay [5] (read-out: M4 EC50) were 11.9 nM, 34.3 nM and 9.1 nM, respectively. In addition, in assay [4], the “% CCh Max at M5” value was found to be 50.8%. For the same molecule, the “% CCh Max at M4” value in assay [5] is on record as 96.9%.
